pIC50: −log10 of the molar value. Where a name gives a salt, the structure may show the parent alone. Read-outs that look alike come from different tables or passages of the source.
Experiments:
[1] = test system: MLKL phosphorylation in HT29-L23 human colorectal adenocarcinoma cells; assay: MLKL Phosphorylation High-Content Assay; type: cell-based; conditions: 6 h, necroptosis induced with TNFα, SMAC mimetic and Z-VAD, read-out: pMLKL (IC50)
How it was run: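 Following fixation and staining for phospho-S358 MLKL with Hoechst nuclear counterstain, high-content imaging quantified phosphorylation in HT29-L23 cells challenged 6 h with TNFα 35 ng/mL, SMAC mimetic 700 nM and Z-VAD 140 nM. Nec-1s at 6.25 μM defined full inhibition; 4-parameter logistic fits yielded IC50 and Ymax.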

[2] = target: His-GST-TVMV-hRIPK1 (1-324) (Homo sapiens (Human), UniProt Q13546); assay: RIPK1 HTRF Binding Assay; conditions: read-out: RIPK1 HTRF (IC50); FRET probe displacement, 1 h at rt
His-GST-TVMV-hRIPK1 (1-324), sequence (Q13546 1-324): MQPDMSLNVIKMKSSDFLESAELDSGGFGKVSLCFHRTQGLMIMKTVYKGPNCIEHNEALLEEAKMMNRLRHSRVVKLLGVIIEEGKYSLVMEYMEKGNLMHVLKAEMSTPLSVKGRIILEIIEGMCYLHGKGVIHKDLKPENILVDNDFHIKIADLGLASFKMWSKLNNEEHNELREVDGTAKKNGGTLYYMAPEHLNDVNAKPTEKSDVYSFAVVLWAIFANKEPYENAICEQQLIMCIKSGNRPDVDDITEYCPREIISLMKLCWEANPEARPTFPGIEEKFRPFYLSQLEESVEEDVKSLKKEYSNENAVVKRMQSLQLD

[2H]C([2H])([2H])Oc1ncc(-c2ccc3c(C(=O)NC4CC4)n[nH]c3c2)cc1C(=O)N[C@H](C)c1ccccc1OC(F)(F)F [Example 13, (R)—N-cyclopropyl-6-(6-methoxyd3-5-((1-(2-(trifluoromethoxy)phenyl)ethyl)carbamoyl)pyridin-3-yl)-1H-indazole-3-carboxamide]
pIC50 ([1]; Homo sapiens): 8.29
pIC50 [2]: 8.26

[2H]C([2H])([2H])Oc1ncc(-c2ccc3c(C(=O)NC)n[nH]c3c2)cc1C(=O)NC([2H])([2H])c1ccccc1OC(F)(F)F [Example 16, 6-(6-methoxy D3-5-((2-(trifluoromethoxy)benzyl D2)carbamoyl)pyridin-3-yl)-N-methyl-1H-indazole-3-carboxamide]
pIC50 ([1]; Homo sapiens): 8.07
pIC50 [2]: 8.66

CNC(=O)c1n[nH]c2cc(-c3cnc(OC)c(-c4nnn(Cc5ccccc5)n4)c3)ccc12 [Example 20, 6-[5-(2-benzyl-2H-1,2,3,4-tetrazol-5-yl)-6-methoxypyridin-3-yl]-N-methyl-1H-indazole-3-carboxamide]
pIC50 ([1]; Homo sapiens): 7.57
pIC50 [2]: 7.18

[2H]C([2H])([2H])Oc1ncc(-c2ccc3c(C(=O)NC4CCC(N(C([2H])([2H])[2H])C([2H])([2H])[2H])CC4)n[nH]c3c2)cc1C(=O)NC(C)c1cccc(OC(F)(F)F)c1 (stereo not drawn) [Example 23, N-(4-(dimethyld6-amino)cyclohexyl)-6-(6-methoxyd3-5-((1-(3-(trifluoromethoxy)phenyl)ethyl)carbamoyl)pyridin-3-yl)-1H-indazole-3-carboxamide]
pIC50 ([1]; Homo sapiens): 6.85
pIC50 [2]: 7.62

[2H]C([2H])([2H])Oc1ncc(-c2ccc3c(C(=O)NC)n[nH]c3c2)cc1C(=O)NCCC(=O)OC(C)(C)C [Example 26, tert-butyl 3-{[2-(deutero)methoxy-5-[3-(methylcarbamoyl)-1H-indazol-6-yl]pyridin-3-yl]form-amido}propanoate]
pIC50 ([1]; Homo sapiens): 7.05
pIC50 [2]: 7.09

[2H]C([2H])([2H])Oc1ncc(-c2ccc3c(C(=O)NC)n[nH]c3c2)cc1C(=O)NCC[C@H](O)c1ccc(Cl)cc1 [Example 27, 6-(5-{[(3S)-3-(4-chlorophenyl)-3-hydroxypropyl]carbamoyl}-6-(deutero)methoxypyridin-3-yl)-N-methyl-1H-indazole-3-carbox-amide, TFA]
pIC50 ([1]; Homo sapiens): 8.10
pIC50 [2]: 8.60

[2H]C([2H])([2H])Oc1ncc(-c2ccc3c(C(=O)NC)n[nH]c3c2)cc1C(=O)NCC(C)(C)C(=O)OC(C)(C)C [Example 28, tert-butyl 3-{[2-(deutero)meth-oxy-5-[3-(methylcarbamoyl)-1H-indazol-6-yl]pyridin-3-yl]form-amido}-2,2-dimethylpropanoate, TFA]
pIC50 ([1]; Homo sapiens): 7.43
pIC50 [2]: 7.77

[2H]C([2H])([2H])Oc1ncc(-c2ccc3c(C(=O)NC)n[nH]c3c2)cc1C(=O)N[C@H](C)c1cccc(C(F)(F)F)c1 [Example 34, 6-[6-(deutero)methoxy-5-{[(1R)-1-[3-(trifluoromethyl)phenyl]-ethyl]carbamoyl}pyridin-3-yl]-N-methyl-1H-indazole-3-carbox-amide]
pIC50 ([1]; Homo sapiens): 7.04
pIC50 [2]: 7.24

[2H]C([2H])([2H])Oc1ncc(-c2ccc3c(C(=O)NC)n[nH]c3c2)cc1C(=O)N[C@@H](C)c1cccc(C(F)(F)F)c1 [Example 35, 6-[6-(deutero)methoxy-5-{[(1S)-1-[3-(trifluoromethyl)phenyl]-ethyl]carbamoyl}pyridin-3-yl]-N-methyl-1H-indazole-3-carboxamide]
pIC50 ([1]; Homo sapiens): 7.36
pIC50 [2]: 8.00

[2H]C([2H])([2H])Oc1ncc(-c2ccc3c(C(=O)NC)n[nH]c3c2)cc1C(=O)NC(C)c1cc(F)ccc1C(F)(F)F (stereo not drawn) [Example 36, 6-[5-({1-[5-fluoro-2-(trifluoro-methyl)phenyl]ethyl}carbamoyl)-6-(deutero)methoxypyridin-3-yl]-N-methyl-1H-indazole-3-carbox-amide]
pIC50 ([1]; Homo sapiens): 7.70
pIC50 [2]: 8.03

CNC(=O)c1n[nH]c2cc(-c3cnc(OC)c(C(=O)NCCC(C)c4ccccc4)c3)ccc12 (stereo not drawn) [Example 37, 6-{6-methoxy-5-[(3-phenylbutyl)-carbamoyl]pyridin-3-yl}-N-methyl-1H-indazole-3-carbox-amide]
pIC50 [1]: 9.52
pIC50 [2]: 8.77

CNC(=O)c1n[nH]c2cc(-c3cnc(OC)c(C(=O)NCc4ccccc4CN(C)C)c3)ccc12 [Example 54, 6-{5-[({2-[(dimethylamino)-methyl]phenyl}methyl)carbam-oyl]-6-methoxypyridin-3-yl}-N-methyl-1H-indazole-3-carboxamide]
pIC50 [1]: 6.92
pIC50 [2]: 7.55

CNC(=O)c1n[nH]c2cc(-c3cnc(OC)c(C(=O)NCCCOc4ccccc4)c3)ccc12 [Example 55, 6-{6-methoxy-5-[(3-phenoxy-propyl)carbamoyl]pyridin-3-yl}-N-methyl-1H-indazole-3-carboxamide]
pIC50 ([1]; Homo sapiens): 7.57
pIC50 [2]: 7.92

CNC(=O)c1n[nH]c2cc(-c3cnc(OC)c(C(=O)NCC(O)COc4ccccc4)c3)ccc12 (stereo not drawn) [Example 56, 6-{5-[(2-hydroxy-3-phenoxy-propyl)carbamoyl]-6-meth-oxypyridin-3-yl}-N-methyl-1H-indazole-3-carboxamide]
pIC50 ([1]; Homo sapiens): 7.59
pIC50 [2]: 8.08

CNC(=O)c1n[nH]c2cc(-c3cnc(OC)c(C(=O)NCCCOC4CCCCC4)c3)ccc12 [Example 62, 6-(5-{[3-(cyclohexyloxy)-propyl]carbamoyl}-6-methoxy-pyridin-3-yl)-N-methyl-1H-indazole-3-carboxamide]
pIC50 ([1]; Homo sapiens): 7.59
pIC50 [2]: 8.17

CNC(=O)c1n[nH]c2cc(-c3cnc(OC)c(C(=O)NCCCOc4ccc(F)cc4)c3)ccc12 [Example 63, 6-(5-{[3-(4-fluorophenoxy)-propyl]carbamoyl}-6-methoxy-pyridin-3-yl)-N-methyl-1H-indazole-3-carboxamide]
pIC50 ([1]; Homo sapiens): 7.80
pIC50 [2]: 8.64

CNC(=O)c1n[nH]c2cc(-c3cnc(OC)c(C(=O)NCCCOCC(C)C)c3)ccc12 [Example 64, 6-(6-methoxy-5-{[3-(2-methyl-propoxy)propyl]carbamoyl}-pyridin-3-yl)-N-methyl-1H-indazole-3-carboxamide]
pIC50 ([1]; Homo sapiens): 8.52
pIC50 [2]: 8.09

CNC(=O)c1n[nH]c2cc(-c3cnc(OC)c(C(=O)NCCC(O)c4ccc(Cl)cn4)c3)ccc12 (stereo not drawn) [Example 65, 6-(5-{[3-(5-chloropyridin-2-yl)-3-hydroxypropyl]carbamoyl}-6-methoxypyridin-3-yl)-N-methyl-1H-indazole-3-carbox-amide]
pIC50 [1]: 8.80
pIC50 [2]: 8.08

CNC(=O)c1n[nH]c2cc(-c3cnc(OC)c(C(=O)NCC4(COc5ccccc5)CC4)c3)ccc12 [Example 68, 6-[6-methoxy-5-({[1-(phenoxy-methyl)cyclopropyl]methyl}-carbamoyl)-pyridin-3-yl]-N-methyl-1H-indazole-3-carbox-amide]
pIC50 [1]: 7.55
pIC50 [2]: 8.34

CNC(=O)c1n[nH]c2cc(-c3cnc(OC)c(C(=O)NCC4(c5ccc(F)cc5)CC4)c3)ccc12 [Example 71, 6-[5-({[1-(4-fluorophenyl)cyclo-propyl]methyl}carbamoyl)-6-methoxypyridin-3-yl]-N-methyl-1H-indazole-3-carboxamide]
pIC50 ([1]; Homo sapiens): 7.11
pIC50 [2]: 7.10

CNC(=O)c1n[nH]c2cc(-c3cnc(OC)c(C(=O)NCC4(c5ccccc5OC(F)(F)F)CC4)c3)ccc12 [Example 72, 6-{6-methoxy-5-[({1-[2-(tri-fluoromethoxy)phenyl]cyclo-propyl}methyl)carbamoyl]-pyridin-3-yl}-N-methyl-1H-indazole-3-carboxamide]
pIC50 ([1]; Homo sapiens): 6.40
pIC50 [2]: 6.41

Source: patent publication US12172975B2, “1H-indazole carboxamides as receptor-interacting protein kinase 1 inhibitors (RIPK1)” (BRISTOL-MYERS SQUIBB COMPANY, priority 2018, dated 2024)
